# Experimental data published in the SangsterLogP compilation.
# Assay: method code SF-AS, from DOI: 10.1002/ardp.19903230114, PMID: 2334269
# Details: pH 7.4
row,logD,Structure (SMILES)
1,2.13,CCCCOC1(c2ccccc2)CN(CCCC)CCO1 (configuration not stated)
2,1.94,CCCCOC1(c2ccccc2)CN2CCCCC2CO1 (configuration not stated)
3,2.03,CCCCN1CCOC(OCCC)(c2ccccc2)C1 (configuration not stated)
4,1.95,c1ccc(COC2(c3ccccc3)CN3CCCCC3CO2)cc1 (configuration not stated)
5,2,CCCCN1CCOC(OCC)(c2ccccc2)C1 (configuration not stated)
6,1.91,CCCOC1(c2ccccc2)CN(C)C2CCCCC2O1 (configuration not stated)
7,1.92,CCCOC1(c2ccccc2)CN2CCCCC2CO1 (configuration not stated)
8,1.95,CC(C)COC1(c2ccccc2)CN2CCCCC2CO1 (configuration not stated)
9,1.87,CCOC1(c2ccccc2)CN2CCCCC2CO1 (configuration not stated)
10,2.05,CCCCCOC1(c2ccccc2)CN(C)C2CCCCC2O1 (configuration not stated)

row,Structure (SMILES),logD
1,CN1CC(O)(c2ccccc2)OC2CCCCC21 (configuration not stated),1.81
2,OC1(c2ccccc2)CN2CCCCC2CO1 (configuration not stated),1.77
